≈ marks a conversion by molar mass, not a printed value.
Tests used:
chloroperoxidase (CPO) [1] = target: T1, chloroperoxidase (CPO) (Leptoxyphium fumago, UniProt P04963); assay: CPO-catalyzed degradation in CPO-H2O2-Cl- system, LC-Q-TOF-MS; type: biochemical, Caldariomyces fumago; set-up: The isolation of CPO proposed in this study was a modification of the protocol reported by Morris and Hager (1966); made in house; host or cells: native producer
T1 sequence (P04963 21-319 limits assumed): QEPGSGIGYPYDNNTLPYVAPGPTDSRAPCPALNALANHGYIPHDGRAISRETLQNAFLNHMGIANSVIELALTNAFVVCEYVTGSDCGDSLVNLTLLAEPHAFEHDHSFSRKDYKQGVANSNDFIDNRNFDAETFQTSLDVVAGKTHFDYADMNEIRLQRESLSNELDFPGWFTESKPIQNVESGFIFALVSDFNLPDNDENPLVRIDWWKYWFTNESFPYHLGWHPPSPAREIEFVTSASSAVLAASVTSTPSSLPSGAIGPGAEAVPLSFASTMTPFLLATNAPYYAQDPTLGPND
Protocol: The mixture was centrifuged at 3,000 g in Centriprep® centrifugal filter unit with a 30,000 Dalton cut-off membrane (EMD Millipore, Billerica, Mass., USA). The yielded product was collected after being centrifuged for 1 min. Ethyl acetate was used to extract the filtrate while shaking vigorously, and the supernatant was evaporated to dryness using nitrogen gas. The dried metabolites were dissolved in H2O/methanol (95:5 v/v) to achieve a final concentration of 1 mg/L (ppm). Each sample was either stored in a freezer at −20° C. or immediately run in the LC-Q-TOF-MS mass spectrometer system.
Chromatographic separation and identification of metabolites was performed using the Agilent 1290 Infinity UPLC system coupled with Agilent 6530 Q-TOF mass spectrometer. The Agilent MassHunter Data Acquisition Software (rev. B0.06.00) was used to control the UPLC and the mass spectrometer. Mass Hunter Qualitative Data Analysis Software (Rev. B.07.00) was used for data mining and identification. An Agilent ZORBAX Eclipse plus C18 Rapid Resolution High Definition (RRHD) column (100 mm×1.8 μm) was applied, with the column temperature set at 30° C. via a thermostatted column compartment (TCC). An infinity 1290 automatic injector was used to inject 1 μL of the sample to the column. […]

chloroperoxidase (CPO) [2] = target: T1, chloroperoxidase (CPO); assay: CPO-catalyzed degradation of CBZ, UV-Vis at 285 nm; type: biochemical, Caldariomyces fumago; set-up: The isolation of CPO proposed in this study was a modification of the protocol reported by Morris and Hager (1966); made in house; host or cells: native producer; details: 20 mM Cl-, 0.07 mM CBZ, 0.07 mM H2O2, 2.5 nM CPO
Protocol: A VARIAN UV-Vis spectrophotometer (Cary 200 Bio) was used to collect the UV spectra of the degradation products. The drug solution was scanned by dissolving 0.07 mM CBZ in 100 mM KH2PO4 buffer with 20 mM KCl at pH 2.75. The same solution was monitored after being mixed with 0.35 mM H2O2. UV spectra were recorded after the addition of 5 nM CPO for 1 min., 2.5 min., and 4 min.
The effect of the concentration of chloride was investigated. Degradation was carried out in 100 mM phosphate buffer at pH 3.0 with 0.07 mM CBZ and 0.07 mM H2O2. Concentration of chloride was increased from 0 to 20 mM. 285 nm wavelength was monitored immediately after 2.5 nM CPO was added.
The degradation rate at pH range of 2.0 to 5.0 was investigated to probe the effect of pH on the CPO-catalyzed reaction. The reaction was carried out in 100 mM phosphate buffer with 20 mM KCl, 0.07 mM CBZ, and 0.07 mM H2O2. […] 285 nm wavelength was monitored immediately after the addition of 2.5 nM CPO. The calculated time was 0.2 to 0.4 min.
The degradation rate of CBZ was determined by different concentrations of H2O2, ranging from 0.07 to 0.71 mM, in 100 mM phosphate buffer with 20 mM KCl and 0.07 mM CBZ at pH 3.0. A wavelength of 285 nm was monitored immediately after the addition of 5 nM CPO. The degradation rate was calculated at 0.1 to 0.3 min.
The rate was calculated by monitoring absorbance at 285 nm from 0.1 to 0.2 min. […]

[3] = MTT assay, cell viability; type: cell-based; details: human, MDA-MB-231 breast cancer cells, read-out: MTT incorporation (cell viability) as percentage of control
Protocol: After incubation, the medium was removed and formazan crystals were dissolved in detergent reagent following the manufacturer's instructions (ATCC). Optical density for each condition was determined at 570 nm. MTT incorporation was expressed as percentage of the control in the absence of compounds.

chloroperoxidase (CPO) [4] = target: T1, chloroperoxidase (CPO); assay: CPO-catalyzed degradation of diclofenac and naproxen, HPLC; type: biochemical, C. fumago; set-up: CPO was isolated from the growth medium of C. fumago; made in house; host or cells: Caldariomyces fumago growth medium (native producer); details: for CPO concentration for complete degradation: 15 μmol/L drug, 0.1 mmol/L H2O2; for fraction of drug degraded within 1 min / time to complete degradation: optimum reaction condition; for pH of maximum degradation efficiency: pH range 2-6
Protocol: Enzymatic degradation of both drugs was carried out in 0.1 mol·L-1 phosphate buffer in a centrifugal tube with a total volume of 3.0 mL containing CPO (0.25-0.23 nmol·L-1), 20 mmol·L-1 KCl, and drugs (15 μmol·L^−1) at pH 2˜6 at 298K. The reaction was started by adding H2O2 (0.015-0.3 mmol·L^−1) in the absence of light under magnetic stirring and was continued for 20 min. The supernatant of the reaction mixture was extracted 3 times using ethyl acetate. The combined organic extract was concentrated by rotary evaporation (0.09 MPa, 308K) to remove the solvent. The extracts were then dissolved in acetonitrile and methanol, respectively, for HPLC (LC-20AT, Shimadzu) analysis. The mobile phase consisted of 80:20 (v/v) acetonitrile and water for diclofenac and 90:10 (v/v) methanol and water for naproxen, and the flow rate was 0.5 ml·min^−1. The detector was set at 274 nm and 235 nm for diclofenac and naproxen, respectively. The quantitative analysis of the target compounds was based on the standard curve (correlation coefficients were >0.999). The effect of reaction parameters (pH, concentration of enzyme/H2O2, and reaction time) on degradation efficiency was investigated and optimized.
All experiments were triplicated and data reported were mean values of three independent measurements.

C. pyrenoidosa = assay: Growth-inhibitory (eco-toxicity) test on freshwater green alga; type: cell-based, Chlorella pyrenoidosa; details: Auxenochlorella pyrenoidosa, 72 h; at the end of CPO-catalyzed degradation (product mixture of the named drug)
Protocol: Freshwater unicellular green alga, C. pyrenoidosa (provided by the Institute of Wuhan Hydrobiology, Chinese Academic of Science), was cultivated in nutrient media of blue green medium (BG11) at 298K and illuminated with cool-white fluorescent lights at a continuous light intensity of 2000 Lx. For cell experiments, C. pyrenoidosa was exposed, during its log growth phase, to the toxicant at five different concentrations (maintain final concentration ranging from 0.01 to 0.36 mg/L) for 3-4 days at 298K. The concentration of the alga was determined by monitoring the change of absorption at 680 nm (Ma et al., 2006). The toxicity tests for each drug concentration were conducted in triplicate.
The growth inhibition rate for each sample was calculated.
However, toxicity evaluation about the products from diclofenac and naproxen are not readily available. Biological assays offer a direct measure to evaluate the magnitude of the potential health risk of chemicals. Therefore, a growth-inhibitory test was carried out using C. Pyrenoidosa.

Row | SMILES | degradation efficiency (chloroperoxidase (CPO) [1]; 10.59 μM (2.5 mg/L) CBZ, 107.19 μM H2O2, 2.9 nM CPO, 10 min) | optimum pH for degradation (chloroperoxidase (CPO) [2]) | viability at 24 h, 0.0425 μg/ml [3] | viability at 24 h, 0.85 μg/ml [3] | viability at 24 h, 1.7 μg/ml [3] | degradation efficiency (chloroperoxidase (CPO) [1]; 62.45 μM SMZ, 1.3 nM CPO, H2O2 added stepwise, 30 min) | CPO concentration for complete degradation (chloroperoxidase (CPO) [4]) | fraction of drug degraded within 1 min (chloroperoxidase (CPO) [4]) | time to complete degradation (chloroperoxidase (CPO) [4]) | pH of maximum degradation efficiency (chloroperoxidase (CPO) [4]) | EC50 (C. pyrenoidosa)
1 | NC(=O)N1c2ccccc2C=Cc2ccccc21 [CBZ, Carbamazepine] | 100% | 3.0 | 80% | 60% | 45% | – | – | – | – | – | –
2 | Cc1cc(C)nc(NS(=O)(=O)c2ccc(N)cc2)n1 [SMZ, Sulfamethazine] | – | – | 80% | 50% | 40% | 100% | – | – | – | – | –
3 | O=C([O-])Cc1ccccc1Nc1c(Cl)cccc1Cl.[Na+] [diclofenac, 2-[(2,6-dichlorophenyl)amino]benzeneacetic acid; sodium salt] | – | – | – | – | – | – | above 5.0 nmol·L^−1 | about 70% | 9 min | ~3.2 | 0.25 µg/mL
4 | COc1ccc2cc(C(C)C(=O)O)ccc2c1 (stereo not shown) [naproxen, 2-(6-methoxynaphthalen-2-yl)propionic acid] | – | – | – | – | – | – | > 20.0 nmol/L | ~75% | 7 min | ~3.2 | 0.33 µg/mL (≈ 1.43 µM)

— US10301203B2, “Chloroperoxidase-catalyzed degradation of pharmaceutical pollutants in wastewater” (THE FLORIDA INTERNATIONAL UNIVERSITY BOARD OF TRUSTEES, priority 2017, dated 2019)
